Question: For `O=C(Nc1cccc(Cc2ccccc2)c1)c1ccn2c1CSC2c1cccnc1` (stereo unspecified), which melting point is on record?
Answer: Its melting point is 140 °C.

Question: For `CC1(C)OC(=O)Nc2ccc(-c3sccc3C#N)cc21`, which melting point is on record?
Answer: Its melting point is 200 to 202 °C.

Question: For `CCCn1nc2c(N)nc3c(c2c1CCCCO)CCCC3`, which melting point is on record?
Answer: The melting point was 194 to 200 °C.

Question: For `NC(=O)CCN1CCC(C2c3ccccc3C=Cc3ccccc32)CC1`, which melting point is on record?
Answer: The melting point was 135 to 140 °C.

Question: Which melting point does the source give for `O=C(NC1CCN(CCc2ccc(Cl)cc2)C1)C12CC3CC(CC(C3)C1)C2` (stereo unspecified) here?
Answer: The melting point was 94 to 95 °C.

Question: For `CNC(=O)/C(=N/OC)c1ccccc1CCl`, which melting point is on record?
Answer: Its melting point is 72 to 74 °C.

Question: For `CC1(C)CCC(=O)Nc2ccc(N)cc21`, which melting point is on record?
Answer: The melting point was 168 °C.

Question: For `CNC(=O)C(=O)CCCCCCc1csc(-c2ccc(Cl)cc2)n1`, which melting point is on record?
Answer: The melting point was 77 to 81 °C.

Question: Which melting point does the source give for `O=C(O)c1cc(Cl)ccc1OC1CCOC1=O` (stereo unspecified) here?
Answer: The melting point was 159 to 160 °C.

Question: For `Cc1cn(CCCCc2ccccc2)c2ccc(C(=O)Nc3cccc4c(=O)cc(-c5nnn[nH]5)oc34)cc12`, which melting point is on record?
Answer: Its melting point is 186 to 187 °C.

Question: With `CCOc1cc(-n2ccnc2)ccc1C#N` as the compound, how does the melting point read?
Answer: The melting point was 134 to 136 °C.

Question: Which melting point does the source give for `CC1N=NC2=CN=C(c3ccccc3Cl)c3cc(C(=O)Cl)ccc3N21` (stereo unspecified) here?
Answer: Its melting point is 295 to 297 °C.

Question: For `OC(Nc1cccc(C(F)(F)F)c1)c1cccnc1` (stereo unspecified), which melting point is on record?
Answer: Its melting point is 102 °C.

Question: Which melting point does the source give for `CC(=O)NC(=O)CCc1ccc(OCCc2nc(-c3ccccc3)oc2C)cc1` here?
Answer: The melting point was 128 to 129 °C.

Question: With `Cc1cc(-n2ccnc2)c2cccc(OCc3c(Cl)ccc(S(=O)(=O)N4CC[C@@H](O)C4)c3Cl)c2n1` as the compound, how does the melting point read?
Answer: The melting point was 166 °C.

Question: Which melting point does the source give for `Cc1oc(-c2cc(C(C)(C)C)c(O)c(C(C)(C)C)c2)nc1CC(=O)O` here?
Answer: Its melting point is 205 to 206 °C.

Question: With `O=C(O)C1CCc2[nH]c3ccc(Cl)c(Cl)c3c2C1` (stereo unspecified) as the compound, how does the melting point read?
Answer: Its melting point is 244 to 245 °C.

Question: Which melting point does the source give for `O=C(O)/C=C/C=C(c1cccc(F)c1)c1cccc(F)c1` here?
Answer: The melting point was 142 to 143 °C.

Question: With `CC(C)(C)NC(CCOc1cccc2c1CC(=O)N2)OC(=O)Cc1ccccc1` (stereo unspecified) as the compound, how does the melting point read?
Answer: Its melting point is 112 to 115 °C.

Question: With `COc1ccc(CC2SC(=O)NC2=O)c2c1N(Cc1ccc(C(=O)Nc3ccc(C(C)C)cc3)cc1)C(=O)CC2` (stereo unspecified) as the compound, how does the melting point read?
Answer: The melting point was 243 to 244 °C.

Question: For `CCC(=O)Oc1cc(OC)cc(OC)c1C(=O)C=Cc1ccc(C)cc1`, which melting point is on record?
Answer: The melting point was 156 °C.

Question: With `N#Cc1ccc(-c2ccc(Cl)cc2)cc1` as the compound, how does the melting point read?
Answer: Its melting point is 128 to 130 °C.

Question: For `CC(C)NC1=NS(=O)(=O)c2cc(C(F)(F)F)ccc2N1`, which melting point is on record?
Answer: Its melting point is 287 to 289 °C.

Question: For `O=S1(=O)NCN(C2CC2)c2c(F)cc(F)cc21`, which melting point is on record?
Answer: Its melting point is 149 to 151 °C.

Question: For `O=C(O)COc1ccc(C(=O)C=Cc2ccccc2)c(Cl)c1Cl`, which melting point is on record?
Answer: The melting point was 190 to 191 °C.

Question: For `CC(C)n1c(=O)[nH]c2c(C(N)=O)nc(-c3cccc(O)c3)nc21`, which melting point is on record?
Answer: Its melting point is 338 to 342 °C.

Question: Which melting point does the source give for `Nc1nc2ccc(Oc3ccc4c(c3)OCO4)cc2s1` here?
Answer: Its melting point is 154 to 157 °C.

Question: With `O=C(O)c1ccc(OCCCOc2ccccc2)cc1O` as the compound, how does the melting point read?
Answer: Its melting point is 161 °C.

Question: For `COCCc1nc(-c2ccc(C(F)(F)F)cc2)ncc1COc1ccc(OC(C)(C)C(=O)O)c(C)c1`, which melting point is on record?
Answer: The melting point was 120 °C.

Question: Which melting point does the source give for `Cn1cc(C2=C(c3cn(CCCNCCN)c4ccccc34)C(=O)NC2=O)c2ccccc21` here?
Answer: The melting point was 190 to 193 °C.

Question: Which melting point does the source give for `COC(=O)c1cc(C=O)ccc1[N+](=O)[O-]` here?
Answer: Its melting point is 76.7 °C.

Question: With `NS(=O)(=O)c1ccc(-n2ccc(C(F)F)n2)c(-c2ccc3c(c2)OCO3)c1` as the compound, how does the melting point read?
Answer: Its melting point is 214 to 218 °C.

Question: With `CCC(=O)c1ccc(-c2ncccc2S(=O)(=O)Nc2ncc(C)nc2OC)cc1` as the compound, how does the melting point read?
Answer: The melting point was 126 to 127 °C.

Question: Which melting point does the source give for `COc1ccc(C2C[N+]([O-])=C3CCCCC32)cc1OC` (stereo unspecified) here?
Answer: The melting point was 135 to 141 °C.

Question: For `CN1Cc2c(I)ncn2-c2ccc(F)c(Cl)c2C1=O`, which melting point is on record?
Answer: Its melting point is 218 to 219 °C.

Question: Which melting point does the source give for `Cc1[nH]c(=O)[nH]c1C(=O)c1ccncc1` here?
Answer: Its melting point is 295 to 296 °C.

Question: With `CC1(C)C(C=CC(=O)O)C1C(=O)OCc1ccccc1` (stereo unspecified) as the compound, how does the melting point read?
Answer: The melting point was 69 °C.

Question: For `CCCCCCCCCC1(C)NC(=S)NC1=S` (stereo unspecified), which melting point is on record?
Answer: The melting point was 88 to 89 °C.

Question: With `CCN(c1cc(Cl)c(Cl)cc1Cl)C(C(=O)O)c1ccccc1OC` (stereo unspecified) as the compound, how does the melting point read?
Answer: Its melting point is 92.7 °C.

Question: For `N#Cc1cc([N+](=O)[O-])ccc1Oc1c(F)c(F)c(F)c(F)c1F`, which melting point is on record?
Answer: The melting point was 128 to 129 °C.

Question: For `COc1cccc(C(=NO)c2sccc2Br)c1`, which melting point is on record?
Answer: Its melting point is 100 to 103 °C.

From a melting point compilation (Tetko et al.; mined from patent text by program, amines drawn as free bases though some values may be those of a salt)
